The values that follow come from the OPERA property sets (Mansouri et al. 2018).

Where a SMILES comes first, the peptide text is derived from it.

As usually defined, the logP is a log measure of how a compound divides between an organic and an aqueous phase. Lower therefore signals lower lipophilicity. `COc1ccc(C2=NC(C(=O)O)CS2)c(O)c1` (stereo not given) yielded a logP of 1.5.

For the molecule `CCCCCC(=O)c1ccncc1`, the logP worked out at 2.9.

For the molecule `CN(C)C(=O)Nc1cccc(OCc2ccc(Cl)cc2Cl)c1`, the logP amounted to 4.1.

Take `COc1cccc(CNc2ncnc3nc[nH]c23)c1`: the logP was 2.1.

On to `COc1ccc(Br)cc1CNC1CCCNC1c1ccccc1` (stereo not given), for which the logP is 4.2.

In turn, `CCOC(=O)C1=C(C)NC(C)=C(C(=O)OC)C1c1cc(OC)cc(OC)c1` (stereo not given) yielded a logP of 4.08.

Turning to `CCC(C)C(N)C(=O)NC(C(=O)NC(C(=O)NC(C(=O)O)C(C)C)C(C)C)C(C)CC` (stereo not given) (H-IIVV-OH; configuration not given here), the logP was -1.41.

The molecule `COCc1ccc(CC#N)cc1` had a logP of 1.23.

For `Nc1nnnn1-c1c(Cl)cccc1Cl`, the logP was found to be 1.56.

In turn, `Clc1ccc2c(oc3c(Cl)cc(Cl)c(Cl)c32)c1Cl` showed a logP of 6.27.

In turn, `CCC(=O)NCc1c(O)c(=O)cc(C)n1C` had a logP of -0.72.

In turn, `Cc1cc(=O)oc2c1cc(C)c1occ(C)c12` yielded a logP of 3.23.

`O=c1cc(CCl)oc(Cl)c1O` registered a logP of 0.95.

In the case of `COc1cccc(C2CCCCC2=O)c1` (stereo not given), the logP turned out to be 2.42.

`CCCCCCCCCCCCN=C=S` showed a logP of 7.13.

`CCOC(=O)Nc1ccc2cc3ccc4c(c3nc2c1)COCN4C(=O)OCC` yielded a logP of 3.12.

Regarding `COc1ccc(C2Cc3cc(Sc4ccccc4)ccc3N(CCN(C)C)C(=O)C2OC(C)=O)cc1` (stereo not given), the logP came out at 5.8.

On to `COc1ccc(CCNCC(O)COc2ccc(-c3nc(C)c(Br)[nH]3)cc2)cc1OC` (stereo not given), for which the logP came out at 3.9.

For the molecule `Cn1c(N)nc2ncc(-c3ccccc3)cc21`, the logP was determined as 2.23.

As to `COC(=O)C(C)NP(=O)(OCC1C=CC(n2cc(C)c(=O)[nH]c2=O)O1)Oc1ccc(C(C)=O)cc1` (stereo not given), the logP turned out to be 0.9.

In turn, `C=CCc1c(OC)cc(Cc2cnc(N)nc2N)cc1OCC` gave a logP of 2.66.

In turn, `CCN(C)CC(=O)Nc1c(C)cccc1C` returned a logP of 1.82.

The molecule `Clc1cccc(CNc2[nH]cnc3ncnc2-3)c1` gave a log partition coefficient (logP) of 2.89.

On to `CC(C)CC(NC(=O)C(C)N)C(=O)NC(CC(C)C)C(=O)NCC(=O)NC(Cc1ccccc1)C(=O)O` (stereo not given) (H-ALLGF-OH; configuration not given here), for which the log partition coefficient (logP) is -0.63.

Regarding `CC(C)C[C@H](NC(=O)[C@@H](NC(=O)[C@@H](N)CC(C)C)C(C)C)C(=O)O` (H-Leu-Val-Leu-OH), the logP was -1.57.

In turn, `CC(C)=CCCC(C)=CCCC(C)(C)O` returned a logP of 4.54.

`COc1ccc(CCNCC(O)COc2ccc(Cc3nc(C(C)=O)c[nH]3)cc2)cc1OC` (stereo not given) displayed a log partition coefficient (logP) of 2.3.

On to `O=C(O)CCC(=O)OC1Cc2c(O)cc(O)cc2OC1c1ccc(O)c(O)c1` (stereo not given), for which the logP came out at 1.41.

In turn, `CCOC(=O)C1=C(C)NC(C)=C(C(=O)OC)C1C` (stereo not given) had a lipophilicity (logP) of 3.27.

Regarding `CC1(C)C2Cc3ssc(=S)c3C1C2` (stereo not given), the log partition coefficient (logP) stood at 3.7.

`Cc1c(O)c(=O)ccn1CCCOC(=O)c1ccccn1` had a logP of -0.18.

`C[N+](C)([O-])CCCCc1ccccc1` yielded a logP of 0.46.

Turning to `O=c1cc(CSc2nc3ccccc3s2)occ1O`, the logP stood at 2.08.

Turning to `S=C=NC(c1ccccc1)c1ccccc1`, the logP worked out at 5.09.

Take `c1nc2nc[nH]c(N3CCCCCC3)c-2n1`: the logP was 2.53.

For the molecule `CCC(=O)Nc1ccc(OCC(O)CNC(C)C)cc1` (stereo not given), the logP worked out at 1.02.

`CCOc1ccc(C(=O)OCCCn2ccc(=O)c(O)c2C)cc1`: the logP stood at 1.79.

For `O=C(O)Cc1nn(Cc2nc3cc(C(F)(F)F)ccc3s2)c(=O)c2ccccc12`, the logP was determined as 2.37.

Regarding `CON=C(C(=O)NC1C(=O)N2C(C(=O)OCc3oc(=O)oc3C)=CCSC12)c1csc(N)n1` (stereo not given), the logP was determined as 0.17.

For the molecule `Cc1ccc(C(=O)NN=Cc2c(CO)ccc(C)c2O)cc1`, the logP stood at 3.39.

With `c1ccc2c(c1)OCC(C1=NCCN1)O2` (stereo not given), the logP was 1.63.

As for `O=C1CCC(=O)N1c1cccc(Cl)c1Cl`, the logP was determined as 0.9.

On to `Nc1nc(N)c2c(OCc3ccccc3)cccc2n1`, for which the logP was 2.82.

In the case of `Nc1nc(F)nc2c1ncn2[C@@H]1O[C@H](CO)[C@@H](O)[C@H]1O`, the logP is -0.8.

For `Cc1cc2c(o1)c(C)cc1c(C)cc(=O)oc12`, the logP was determined as 3.28.

Turning to `O=C(NCC(F)(F)F)NS(=O)(=O)c1cnccc1NC1CCCCCC1`, the logP was found to be 3.85.

`CC(C)(C)[N+]([O-])=Cc1ccc(C(=O)O)cc1` displayed a logP of 1.1.

Regarding `CCOP(=O)(Oc1ccc(C#N)cc1)c1ccccc1` (stereo not given), the logP came out at 2.44.

For the molecule `CC(C)(Cc1c[nH]c2ccccc12)NCC(O)CON=C(C1CC1)C1CC1` (stereo not given), the logP was found to be 3.29.

`COC(=O)c1cccc(C)c1S(=O)(=O)NC(=O)Nc1nc(OCC(F)(F)F)nc(N(C)C)n1` gave a logP of 3.56.

Take `CC(C)=CC1C(C(=O)OCc2cccc(I)c2)C1(C)C` (stereo not given): the logP came out at 6.61.

Take `COC(=O)c1c(Oc2nc(OC)cc(OC)n2)cccc1C(C)=NOCc1ccccc1`: the logP amounted to 4.01.

`CC(C)CC(N)C(=O)N1CCCC1C(=O)O` (stereo not drawn) (H-Leu-Pro-OH; configuration not given here) had a lipophilicity (logP) of -1.76.

`CC(C)CC(NC(=O)C(C)NC(=O)C(C)NC(=O)C(C)NC(=O)C(N)Cc1ccccc1)C(=O)O` (stereo not given) (H-FAAAL-OH; configuration not given here) showed a logP of -2.23.

In turn, `COc1ccc(S(C)(=O)=O)cc1CNC1CCCNC1c1ccccc1` (stereo not given) yielded a logP of 1.9.

The molecule `c1nc2nc[nH]c(N3CCC3)c-2n1` returned a log partition coefficient (logP) of 0.87.

`CCC(=O)[C@@]1(C)CC[C@H]2[C@@H]3CCC4=CC(=O)CCC4=C3CC[C@@]21C` yielded a logP of 4.04.

Take `O=C(O)CCCCCON=C(c1cccc(C(F)(F)F)c1)c1ccncn1`: the logP was determined as 3.55.

In the case of `CCCCC(=O)C(CCCCOc1cccc(F)c1)n1cncn1` (stereo not given), the logP was 3.42.

Molecule `c1ccc(Nc2ncnc3nc[nH]c23)cc1` had a logP of 2.12.

The molecule `NC1CC(CO)N(c2cc3c(cc2F)c(=O)c(C(=O)O)cn3-c2ccc(F)cc2F)C1` (stereo not given) gave a logP of -0.98.

Molecule `CC(C)c1cccc(C(C)C)c1NC(=O)CC(=O)c1ccccc1` returned a logP of 2.87.

As for `CC(C)(C)n1cc(C(=O)O)c(=O)c2cc(F)c(N3CC4CC3CN4)nc21` (stereo not given), the logP is -0.41.

The molecule `CCCNc1ncnc2c1ncn2C1OC(CO)C(O)C1O` (stereo not given) returned a logP of 0.54.

The molecule `CC(=O)N(O)CCCCCNC(=O)CCC(=O)N(O)CCCCCNC(=O)CCC(=O)N(O)CCCCCNC=O` registered a logP of -0.33.

Molecule `CCCCOCCCNc1ncnc2c1ncn2C1OC(CO)C(O)C1O` (stereo not given) registered a logP of 1.3.

Turning to `O=C1c2ccccc2OCN1CCO[N+](=O)[O-]`, the logP is 1.85.

Turning to `Cc1oc2cc3oc(=O)ccc3cc2c1C`, the logP is 2.93.

Molecule `CCOc1ccc(NC(=O)OC(C)c2ccccc2)cc1OCC` (stereo not given) displayed a logP of 3.56.

Molecule `CCCC(=NOCC)C1=C(O)CC2(CCCCC2)OC1=O` had a logP of 3.62.

In turn, `CC(C)(C)[N+]([O-])=Cc1ccccc1O` yielded a logP of 1.3.

`Cc1[nH]c2ccccc2c1Cc1n[nH]c(=S)n1-c1ccccc1` gave a logP of 2.55.

Regarding `Nc1nc(N)c2c(I)cccc2n1`, the logP was determined as 2.12.

The molecule `OCCCCNc1[nH]cnc2ncnc1-2` yielded a logP of 0.32.

With `Nc1nc(N)nc(O)n1`, the logP is -0.19.

In turn, `CC1CCC2CC(=O)N(CCc3ccccc3)C3OC4(C)CCC1C23OO4` (stereo not given) gave a logP of 3.94.

`CCC(CC)(C(=O)OC)S(=O)(=O)c1ccc([N+](=O)[O-])cc1` yielded a logP of 2.24.

As to `CCC(C)C(NC(=O)C(CC(C)C)NC(=O)C(NC(=O)C(N)CCSC)C(C)CC)C(=O)O` (stereo not given) (H-MILI-OH; configuration not given here), the logP was -0.49.

Molecule `CCCC(=NOCC)C1=C(O)CC2(CCSCC2)OC1=O` showed a logP of 2.9.

The molecule `CC(C)NC(=O)N1C(=O)N(C)CC1O` (stereo not given) displayed a logP of 0.96.

In turn, `CC(SSc1ncc[nH]1)c1ccccc1` (stereo not given) yielded a logP of 3.39.

The molecule `COc1cc(OC)c(C=[N+]([O-])C(C)(C)C)c(OC)c1` yielded a logP of 1.2.

`O=c1cc(CBr)oc(Br)c1O` registered a logP of 1.27.

Molecule `NC(Cc1ccc(O)cc1)C(=O)N1CCCC1C(=O)NCC(=O)NC(Cc1c[nH]c2ccccc12)C(=O)O` (stereo not given) (H-YPGW-OH; configuration not given here) showed a logP of -1.25.

In the case of `O=[N+]([O-])c1cccc(CNc2ncnc3nc[nH]c23)c1`, the logP worked out at 2.03.

`CC(C)NCC(O)COc1ccccc1C1CCCCC1` (stereo not given) came in with a logP of 3.68.

The molecule `CC(=O)N(O)CCCCCNC(=O)CCC(=O)N(O)CCCCCNC(=O)CCC(=O)N(O)CCCCCNS(C)(=O)=O` had a logP of -0.36.

For the molecule `CCCN(CCC)C1CCc2c(OC)cccc2C1C` (stereo not given), the logP turned out to be 4.76.

Molecule `CC1(C(Cl)Cl)C2CC(Cl)(Cl)C1(C(Cl)Cl)CC2(Cl)Cl` (stereo not given) registered a logP of 5.9.

For the molecule `CCCc1nc(NCC)nc(N2CCCCC2)n1`, the logP came to 3.34.

With `Cc1c(C(=O)O)cccc1[N+](=O)[O-]`, the logP is 2.16.

`CC(C)CC(N)C(=O)NC(Cc1ccc(O)cc1)C(=O)O` (stereo not given): the logP was -1.94.

Consider `CCCN(CCC)C1CCc2c(O)cccc2C1C` (stereo not given), for which the logP is 4.06.

For `CCOP(=O)(OCC)C(C)(C)[N+]([O-])=Cc1cc[n+]([O-])cc1`, the logP is -0.74.

Molecule `COc1ccc(C2Cc3c(cccc3C(F)(F)F)N(CCN(C)C)C(=O)C2Cc2ccccc2)cc1` (stereo not given) yielded a logP of 7.2.

`Nc1nc(N)c2c([N+](=O)[O-])cccc2n1`: the logP amounted to 1.19.

Regarding `COc1ccc(C=C2C(=O)NC(=S)NC2=O)cc1`, the logP was determined as 0.76.

Molecule `C#CCN(N=O)C(=O)NCCCC(NC(C)=O)C(=O)NCc1ccccc1` (stereo not given) gave a logP of 1.12.

Consider `c1ccc(CN2CCN(CCn3nc4ccccc4n3)CC2)cc1`, for which the logP was determined as 3.3.

Consider `CS(=O)(=O)Nc1cccc(Cn2cnc3ccccc32)c1`, for which the logP was determined as 2.08.

In the case of `CC(=O)OC(C)(C)C1CCC2(C)CCCC(C)(O)C2C1` (stereo not given), the logP is 3.8.

For `Cc1cc(Cl)c(C(C)C)c(Cl)c1Cl`, the logP was determined as 6.2.

On to `CCCCC(=O)OCOCC(=O)C1(O)Cc2c(O)c3c(c(O)c2C(OC2CC(N(C)C)C(O)C(C)O2)C1)C(=O)c1c(OC)cccc1C3=O` (stereo not given), for which the logP was 2.82.

Take `O=[N+]([O-])c1cn(Cc2ccccc2)cn1`: the logP was 1.36.

`CCc1cccc2nc(N)nc(N)c12` had a logP of 1.69.
